Source: patent US20210393651A1, “TARGETING THE ONCOGENIC TRANSCRIPTION FACTOR STAT5 WITH MINERALOCORTICOID ANALOGUES” (DANA-FARBER CANCER INSTITUTE, INC., priority 2018, published 2021)
Blank lines part the entries; values can stand above or below the molecule they belong to.

Tests used:
STAT5 [1] = assay: Immunoblot of STAT5 phosphorylation and nuclear localization in T47D cells after prolactin; format: cell-based; details: for phosphorylation and nuclear localization of STAT5: 1 hour pre-treatment, 15 minutes after prolactin, cellular fractionation (FIG. 3B)
Experimental: (§1) FIG. 3A-FIG. 3C is a series of photographs of blots and bar charts showing that fludrocortisone inhibits STAT5 transcriptional function without affecting its phosphorylation or genome binding. FIG. 3A is a photograph of a blot wherein T47D cells were pretreated with vehicle control or fludrocortisone for 1 hour after which prolactin was added. Cells were harvested at the indicated time point and immunoblotting was performed. FIG. 3B is a photograph of a blot wherein T47D cells were pretreated with vehicle, fludrocortisone, or Jak inhibitor 1 for 1 hour after which prolactin was added. Cells were collected 15 minutes after prolactin stimulation and cellular fractionation and immunoblotting was performed. FIG. 3C is a photograph of a blot wherein T47D cells were pretreated with vehicle (DMSO) or fludrocortisone for 1 hour, then left untreated or stimulated with prolactin. 30 minutes later, cells were harvested and ChIP was performed to analyze STAT5 and pol II binding to the CISH promoter region. Error bars represent mean±SD for two independent experiments.
Nuclear and cytoplasmic fractionation was performed using the Nuclear Extract Kit (Active Motif, Carlsbad, Calif.). Immunoblots were performed using antibodies recognizing STAT5 (sc-482), MCR (sc-11412) and RNA polymerase II (pol II) (sc-9001) (all from Santa Cruz Biotechnology, Santa Cruz Calif.) and tyrosine-phosphorylated STAT5 (9131L) (from Cell Signaling Technology, Danvers, Mass.).
Next, it was considered whether fludrocortisone was inhibiting STAT5 function by blocking a key step in its activation. To address this, the effect of fludrocortisone on the kinetics of STAT5 phosphorylation following prolactin stimulation was evaluated. […] It was then evaluated whether nuclear translocation of activated STAT5 was affected by fludrocortisone treatment. T47D cells were either untreated or pretreated with fludrocortisone or JAK inhibitor 1, then left unstimulated or treated with prolactin, after which nuclear and cytoplasmic fractions were separated and analyzed for phosphorylated STAT5. […]

STAT5 [2] = assay: STAT5-dependent luciferase reporter in T47D cells (NCAM2-luc/T47D), prolactin-stimulated; format: cell-based
Experimental: (§2) FIG. 1A is a bar chart wherein reporter cell lines were treated with the indicated doses of fludrocortisone for two hours, after which cytokines were added to activate the appropriate transcription factor. Luciferase activity was quantified by luminometry six hours later. FIG. 1B is a bar chart wherein T47D cells were transfected with one of two luciferase constructs regulated by a STAT5-dependent promoter (NCAM-luc or B-luc) together with a normalizing control, and the effect of fludrocortisone on prolactin-induced gene expression was determined. Jak inhibitor 1 (JAKinhib; 1 μM) was used as a positive control. Error bars represent mean±SD for two independent experiments. FIG. 1C is a series of bar charts wherein the indicated breast cancer cell lines were pre-treated with vehicle (dimethylsulfoxide (DMSO)) or fludrocortisone (1 μM) for 1 hour, then left untreated or stimulated with prolactin (100 ng/ml) to induce STAT5 activation. RNA was harvested 1.5 hours later, and expression of the indicated STAT5 target genes was measured using quantitative reverse transcription polymerase chain reaction (RT-PCR) and normalized to the expression of 18s. Error bars represent mean±SD for triplicates.
FIG. 2A-FIG. 2E is a series of bar graphs showing that the endogenous mineralocorticoid aldosterone inhibits STAT5 transcriptional function. FIG. 2A is a bar chart wherein T47D cells were transfected with an MCR-dependent luciferase reporter and a normalizing control, and normalized luciferase activity was determined after the indicated treatment. FIG. 2B is a bar chart wherein T47D cells transfected with an MCR-dependent luciferase reporter and a normalizing control were treated with the indicated dose of aldosterone, after which luciferase activity was determined. FIG. 2C is a bar chart wherein T47D-luc cells were pre-treated with the indicated concentration of aldosterone for 1 hour, then stimulated with prolactin (100 ng/ml) for 6 hours, after which luciferase activity was determined. […] RNA was harvested 1.5 hours later, and expression of STAT5 target genes was measured using quantitative RT-PCR and normalized to the expression of 18s RNA. […] Luciferase activity was quantified by luminometry six hours following prolactin stimulation. […]
T47D, ZR75 (American Type Culture Collection, Manassas Va.), and MDA-MB-468, were maintained in DMEM containing 10% FBS. […] STAT1, STAT3, STAT5 and NF-κB-dependent luciferase activities were measured in STAT-luc/2FTGH, STAT-luc/U3A, NCAM2-luc/T47D and NF-κB-luc/293 cells, respectively (Nelson et al., 2008 Blood 112, 5095-5102). Luciferase activity was quantified using the Bright-Glo Luciferase assay system (Promega, Madison, Wis.). […]

[3] = test system: STAT5 target genes AREG and CISH; assay: Expression of endogenous STAT5 target genes in breast cancer cell lines by quantitative RT-PCR; format: cell-based; details: 1 hour pre-treatment; for expression of endogenous STAT5 target genes AREG and CISH: 1 μM, prolactin 100 ng/ml
Experimental: as §2
FIG. 2A-FIG. 2E is a series of bar graphs showing that the endogenous mineralocorticoid aldosterone inhibits STAT5 transcriptional function. FIG. 2A is a bar chart wherein T47D cells were transfected with an MCR-dependent luciferase reporter and a normalizing control, and normalized luciferase activity was determined after the indicated treatment. FIG. 2B is a bar chart wherein T47D cells transfected with an MCR-dependent luciferase reporter and a normalizing control were treated with the indicated dose of aldosterone, after which luciferase activity was determined. FIG. 2C is a bar chart wherein T47D-luc cells were pre-treated with the indicated concentration of aldosterone for 1 hour, then stimulated with prolactin (100 ng/ml) for 6 hours, after which luciferase activity was determined. […] Luciferase activity was quantified by luminometry six hours following prolactin stimulation. […]

MCR = assay: MCR-dependent luciferase reporter in T47D cells; format: cell-based; details: for activation of MCR, MCR-specific luciferase reporter: T47D cells (FIG. 2A)
Experimental: FIG. 2A-FIG. 2E is a series of bar graphs showing that the endogenous mineralocorticoid aldosterone inhibits STAT5 transcriptional function. FIG. 2A is a bar chart wherein T47D cells were transfected with an MCR-dependent luciferase reporter and a normalizing control, and normalized luciferase activity was determined after the indicated treatment. FIG. 2B is a bar chart wherein T47D cells transfected with an MCR-dependent luciferase reporter and a normalizing control were treated with the indicated dose of aldosterone, after which luciferase activity was determined. FIG. 2C is a bar chart wherein T47D-luc cells were pre-treated with the indicated concentration of aldosterone for 1 hour, then stimulated with prolactin (100 ng/ml) for 6 hours, after which luciferase activity was determined. FIG. 2D is a bar chart wherein T47D cells were pre-treated with vehicle control or aldosterone (0.01 μM) for 1 hour, after which prolactin (100 ng/ml) was added to induce STAT5 activation. RNA was harvested 1.5 hours later, and expression of STAT5 target genes was measured using quantitative RT-PCR and normalized to the expression of 18s RNA. FIG. 2E is a bar chart wherein T47D cells stably expressing a STAT5-dependent luciferase reporter gene were treated with 1 μM fludrocortisone at the indicated time points relative to prolactin stimulation. Luciferase activity was quantified by luminometry six hours following prolactin stimulation. Error bars represent mean±SD for triplicates.

NF-κB = assay: NF-κB-dependent luciferase reporter (NF-κB-luc/293 cells); format: cell-based; details: concentrations up to 33 μM
Experimental: as §2, with “FIG. 1C is a series of bar charts wherein the indicated breast cancer cell lines were pre-treated with vehicle (dimethylsulfoxide (DMSO)) or fludrocortisone (1 μM) for 1 hour, then left untreated or stimulated with prolactin (100 ng/ml) to induce STAT5 activation.” left out, “Error bars represent mean±SD for triplicates.” left out
(§3) T47D, ZR75 (American Type Culture Collection, Manassas Va.), and MDA-MB-468, were maintained in DMEM containing 10% FBS. […] STAT1, STAT3, STAT5 and NF-κB-dependent luciferase activities were measured in STAT-luc/2FTGH, STAT-luc/U3A, NCAM2-luc/T47D and NF-κB-luc/293 cells, respectively (Nelson et al., 2008 Blood 112, 5095-5102). Luciferase activity was quantified using the Bright-Glo Luciferase assay system (Promega, Madison, Wis.).

STAT1 = assay: STAT1-dependent luciferase reporter (STAT-luc/2FTGH cells); format: cell-based; details: concentrations up to 33 μM
Experimental: as §2, with “FIG. 1C is a series of bar charts wherein the indicated breast cancer cell lines were pre-treated with vehicle (dimethylsulfoxide (DMSO)) or fludrocortisone (1 μM) for 1 hour, then left untreated or stimulated with prolactin (100 ng/ml) to induce STAT5 activation.” left out, “Error bars represent mean±SD for triplicates.” left out
as §3

[4] = test system: STAT5 and RNA polymerase II binding to CISH promoter; assay: ChIP of STAT5 and pol II binding to the CISH promoter region in T47D cells; format: cell-based; details: 1 hour pre-treatment, 30 minutes after prolactin (FIG. 3C)
Experimental: as §1, with “FIG. 3C is a photograph of a blot wherein T47D cells were pretreated with vehicle (DMSO) or fludrocortisone for 1 hour, then left untreated or stimulated with prolactin. 30 minutes later, cells were harvested and ChIP was performed to analyze STAT5 and pol II binding to the CISH promoter region. Error bars represent mean±SD for two independent experiments.” left out
ChIP was performed as described (Nelson et al., 2004 J Biol Chem 279, 54724-54730). […] Quantitative PCR was performed in triplicate on ChIP product or input using SYBR Green PCR Master Mix (Applied Biosystems, Foster City, Calif.) and region-specific primers as follows: CISH, forward, 5′-CCCGCGGTTCTAGGAAGAC-3′ (SEQ ID NO: 1), reverse, 5′-CGAGCTGCTGCCTAATCCT-3′ (SEQ ID NO: 2); Rhodopsin, forward, 5′-[…]-3′ (SEQ ID NO: 3), reverse, 5′-[…]-3′ (SEQ ID NO: 4). Relative binding at the CISH promoter site was normalized to input and expressed as mean fold change relative to binding at the Rhodopsin site, which is a control DNA binding site known not to bind STAT5. […]

STAT5 [5] = assay: STAT5 activity in hematopoietic cells; format: cell-based
STAT5 [6] = assay: Dual luciferase assay, parental T47D cells transfected with NCAM-luc or B-luc; format: cell-based; details: prolactin-induced
Experimental: as §2, with “triplicates. […]” for “triplicates.”

STAT3 = assay: STAT3-dependent luciferase reporter (STAT-luc/U3A cells); format: cell-based; details: concentrations up to 33 μM
Experimental: as §2, with “FIG. 1C is a series of bar charts wherein the indicated breast cancer cell lines were pre-treated with vehicle (dimethylsulfoxide (DMSO)) or fludrocortisone (1 μM) for 1 hour, then left untreated or stimulated with prolactin (100 ng/ml) to induce STAT5 activation.” left out, “Error bars represent mean±SD for triplicates.” left out
as §3

STAT5 [7] = assay: STAT5 function (test not described)
[8] = T47D reporter cells, 1 μM (FIG. 2E)

SMILES: CC(C)(C)c1nc2c3cc[nH]c(=O)c3c3cc(F)ccc3c2[nH]1 [JAK inhibitor 1]
phosphorylation and nuclear localization of STAT5 (STAT5 [1]): complete inhibition

SMILES: C[C@]12CCC(=O)C=C1CC[C@@H]1[C@@H]2[C@@H](O)C[C@]2(C=O)[C@@H](C(=O)CO)CC[C@@H]12 [aldosterone]
inhibition of STAT5-dependent reporter gene, dose response (STAT5 [2]; T47D-luc cells, 1 hour pre-treatment, prolactin 100 ng/ml for 6 hours (FIG. 2C)): dose-dependent inhibition
expression of endogenous STAT5 target genes ([3]; T47D cells, 0.01 μM, prolactin 100 ng/ml (FIG. 2D)): inhibited
activation of MCR, MCR-specific luciferase reporter (MCR): activate MCR
dose dependence of MCR activation, MCR-dependent luciferase reporter (MCR; T47D cells, indicated doses (FIG. 2B)): activates MCR in a dose-dependent manner

IC50 (STAT5 [2]; Homo sapiens, T47D cells stably expressing STAT5-dependent luciferase reporter, prolactin 100 ng/ml, read-out: IC50, inhibition of STAT5-dependent luciferase activity): ~100 nM
SMILES: C[C@]12CCC(=O)C=C1CC[C@H]1[C@@H]3CC[C@](O)(C(=O)CO)[C@@]3(C)C[C@H](O)[C@@]12F [fludrocortisone, 9α-fluoro-11β,17α,21-trihydroxypregn-4-ene-3,20-dione]
effect on NF-κB-dependent luciferase expression (NF-κB): essentially no effect
dynamics of STAT5 activation (phosphorylation kinetics) following prolactin (STAT5 [1]; 1 hour pre-treatment (FIG. 3A)): no difference
phosphorylation and nuclear localization of STAT5 (STAT5 [1]): no effect
prolactin-stimulated STAT5 luciferase activity, compound added after prolactin (STAT5 [2]; [8]): some inhibitory effect
prolactin-stimulated STAT5 luciferase activity, compound added simultaneously with prolactin (STAT5 [2]; [8]): still effectively inhibit
effect on STAT1-dependent luciferase expression (STAT1): essentially no effect
STAT5 binding to CISH regulatory site (ChIP) [4]: no effect
prolactin-induced recruitment of RNA polymerase II (pol II) to CISH promoter site (ChIP) [4]: did inhibit
expression of endogenous STAT5 target genes AREG and CISH ([3]; T47D cells): effectively inhibits
expression of endogenous STAT5 target genes AREG and CISH ([3]; ZR75 cells): effectively inhibits
activation of MCR, MCR-specific luciferase reporter (MCR): activate MCR
induced or constitutive STAT5 activity (STAT5 [5]): does not appear to inhibit
STAT5-dependent luciferase activity, B-luc (BCL6) promoter (STAT5 [6]): reduced STAT5-dependent luciferase activity
STAT5-dependent luciferase activity, NCAM-luc promoter (STAT5 [6]): reduced STAT5-dependent luciferase activity
effect on STAT3-dependent luciferase expression (STAT3): essentially no effect

SMILES: CC(=O)S[C@@H]1CC2=CC(=O)CC[C@]2(C)[C@H]2CC[C@@]3(C)[C@@H](CC[C@@]34CCC(=O)O4)[C@H]12 [spironolactone]
STAT5 function (STAT5 [7]): inhibit STAT5 function
